In ChEMBL document CHEMBL1201862, “PubChem BioAssay data set” (2004):
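Each compound was tested at five concentrations against cells in 96-well plates for 48 hours. Here, GI50 denotes the concentration required for 50% inhibition of growth.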 The source made the active and inactive calls. Rule as the data show it: active = GI50 up to about 1.1 µM and inactive = higher.

Columns and labels:
Assay in all cases: NCI-60 cell line screen, 48 h
[1] = test system: BT-549
[2] = test system: DU-145
[3] = test system: HOP-62
[4] = test system: Hs-578T
[5] = test system: IGROV-1
[6] = test system: K562
[7] = test system: KM12
[8] = test system: MCF7
[9] = test system: MDA-MB-231
[10] = test system: PC-3
[11] = test system: SK-MEL-28
[12] = test system: SK-MEL-2
[13] = test system: SN12C
[14] = test system: SNB-19
[15] = test system: SR
[16] = test system: T47D

SMILES	GI50 [1]	GI50 [2]	GI50 [3]	GI50 [4]	GI50 [5]	GI50 [6]	GI50 [7]	GI50 [8]	GI50 [9]	GI50 [10]	GI50 [11]	GI50 [12]	GI50 [13]	GI50 [14]	GI50 [15]	GI50 [16]
CCCCSCc1nc2nc(Cl)c(Cl)nc2[nH]1	27.1 µM (inactive)	32.5 µM (inactive)	16.1 µM (inactive)	35.6 µM (inactive)	33.1 µM (inactive)	24 µM (inactive)	29.8 µM (inactive)	23.6 µM (inactive)	24.6 µM (inactive)	31.6 µM (inactive)	23 µM (inactive)	18.7 µM (inactive)	22.1 µM (inactive)	35.3 µM (inactive)	22 µM (inactive)	15.7 µM (inactive)
CCOc1cc2c(cc1O)/C(=N\N)C[C@@H]1[C@@H]2CC[C@]2(C)[C@@H](O)CC[C@@H]12	4.26 µM (inactive)	8.73 µM (inactive)	3.66 µM (inactive)	3.06 µM (inactive)	6.97 µM (inactive)	0.42 µM (active)	4.71 µM (inactive)	2.68 µM (inactive)	5.62 µM (inactive)	6.34 µM (inactive)	5.66 µM (inactive)	4.38 µM (inactive)	9.12 µM (inactive)	3.87 µM (inactive)	0.333 µM (active)	8.32 µM (inactive)
COc1cc(/C=C2\C[C@H]3[C@@H]4CC=C5C[C@@H](O)CC[C@]5(C)[C@H]4CC[C@]3(C)[C@H]2O)cc(OC)c1OC	15.4 µM (inactive)	18.3 µM (inactive)	10.8 µM (inactive)	19.9 µM (inactive)	27.8 µM (inactive)	5.97 µM (inactive)	10.1 µM (inactive)	8.34 µM (inactive)	11.4 µM (inactive)	16.6 µM (inactive)	25.2 µM (inactive)	12.7 µM (inactive)	38.3 µM (inactive)	50.1 µM (inactive)	–	3.48 µM (inactive)
Nc1cccc(C#Cc2cccc(C#Cc3cccc(N)n3)n2)n1	> 100 µM (inactive)	> 100 µM (inactive)	> 100 µM (inactive)	> 100 µM (inactive)	69.5 µM (inactive)	> 100 µM (inactive)	> 100 µM (inactive)	> 100 µM (inactive)	> 100 µM (inactive)	> 100 µM (inactive)	–	> 100 µM (inactive)	79.3 µM (inactive)	> 100 µM (inactive)	14 µM (inactive)	76.9 µM (inactive)
N/C(=N\N=C\c1cc2ccccc2s1)c1cnccn1	> 100 µM (inactive)	> 100 µM (inactive)	> 100 µM (inactive)	> 100 µM (inactive)	> 100 µM (inactive)	3.85 µM (inactive)	> 100 µM (inactive)	5.24 µM (inactive)	82.6 µM (inactive)	92.3 µM (inactive)	> 100 µM (inactive)	> 100 µM (inactive)	> 100 µM (inactive)	88.3 µM (inactive)	6 µM (inactive)	8.93 µM (inactive)
Cc1cn(C2CC(O)C(COC(=O)NCCC(F)(F)C(F)(F)C(F)(F)C(F)(F)F)O2)c(=O)[nH]c1=O (stereo unspecified)	> 100 µM (inactive)	> 100 µM (inactive)	> 100 µM (inactive)	80.5 µM (inactive)	> 100 µM (inactive)	> 100 µM (inactive)	> 100 µM (inactive)	> 100 µM (inactive)	> 100 µM (inactive)	> 100 µM (inactive)	> 100 µM (inactive)	–	> 100 µM (inactive)	> 100 µM (inactive)	> 100 µM (inactive)	> 100 µM (inactive)
N#Cc1cnn2ccn(C3OC(COC(=O)c4ccccc4)C(OC(=O)c4ccccc4)C3OC(=O)c3ccccc3)c12 (stereo unspecified)	> 100 µM (inactive)	> 21.5 µM (inactive)	> 21.5 µM (inactive)	13.2 µM (inactive)	> 21.5 µM (inactive)	> 21.5 µM (inactive)	17.3 µM (inactive)	> 46.5 µM (inactive)	> 21.5 µM (inactive)	5.56 µM (inactive)	> 21.5 µM (inactive)	–	> 21.5 µM (inactive)	> 21.5 µM (inactive)	> 31.6 µM (inactive)	19.1 µM (inactive)
COc1ccc(C(=O)N2CCc3c([nH]c4ccccc34)C2C(=O)O)o1 (stereo unspecified)	> 10 µM (inactive)	> 10 µM (inactive)	> 10 µM (inactive)	> 10 µM (inactive)	> 10 µM (inactive)	> 10 µM (inactive)	> 10 µM (inactive)	> 10 µM (inactive)	> 10 µM (inactive)	> 10 µM (inactive)	> 10 µM (inactive)	–	> 10 µM (inactive)	> 10 µM (inactive)	> 10 µM (inactive)	> 10 µM (inactive)
CC(C)(C)c1cc(S(=O)(=O)O)c2oc(-c3ccccc3)cc(=O)c2c1	> 100 µM (inactive)	> 100 µM (inactive)	> 100 µM (inactive)	> 100 µM (inactive)	> 100 µM (inactive)	> 100 µM (inactive)	> 100 µM (inactive)	> 100 µM (inactive)	> 100 µM (inactive)	> 100 µM (inactive)	> 100 µM (inactive)	–	> 100 µM (inactive)	> 100 µM (inactive)	> 100 µM (inactive)	84.9 µM (inactive)
COc1cc2nc(-c3cccs3)[nH]c(=O)c2cc1OC	> 100 µM (inactive)	> 100 µM (inactive)	> 100 µM (inactive)	> 100 µM (inactive)	19.9 µM (inactive)	> 100 µM (inactive)	> 100 µM (inactive)	> 100 µM (inactive)	23.2 µM (inactive)	> 100 µM (inactive)	> 100 µM (inactive)	> 100 µM (inactive)	> 100 µM (inactive)	> 100 µM (inactive)	13.8 µM (inactive)	> 100 µM (inactive)
O=C(/C=C/NC(=O)OCc1ccccc1)OCc1ccccc1	> 100 µM (inactive)	> 100 µM (inactive)	> 100 µM (inactive)	> 100 µM (inactive)	> 100 µM (inactive)	> 100 µM (inactive)	> 100 µM (inactive)	> 100 µM (inactive)	28.1 µM (inactive)	> 100 µM (inactive)	> 100 µM (inactive)	> 100 µM (inactive)	> 100 µM (inactive)	> 100 µM (inactive)	> 100 µM (inactive)	> 100 µM (inactive)
COc1cc(C(=O)C2C(=O)c3ccccc3C2C2(O)c3ccccc3CC2C(O)c2cc(OC)c(OC)c(OC)c2)cc(OC)c1OC (stereo unspecified)	> 100 µM (inactive)	> 100 µM (inactive)	17.6 µM (inactive)	> 100 µM (inactive)	> 100 µM (inactive)	> 100 µM (inactive)	> 100 µM (inactive)	> 100 µM (inactive)	94.2 µM (inactive)	> 100 µM (inactive)	> 100 µM (inactive)	> 100 µM (inactive)	> 100 µM (inactive)	> 100 µM (inactive)	> 100 µM (inactive)	> 100 µM (inactive)
